Values of other authors, collected in EP1060743A1, “Oral cisapride dosage forms with an extended duration” (DEVELOPMENT CENTER FOR BIOTECHNOLOGY, priority 1999, dated 2000).
Like-named read-outs stand apart in the source and are kept apart here.

- solubility of cisapride (pH condition near neutral (pH of intestinal fluid)): almost insoluble
- solubility of cisapride (under acidic conditions): better solubility
Compound: COc1cc(N)c(Cl)cc1C(=O)NC1CCN(CCCOc2ccc(F)cc2)CC1OC (racemic) [cisapride, (±)-cis-4-amino-5-chloro-N-1-[3-(4-fluorophenoxy)propyl]-3-methoxy-4-piperidine-2-methoxybenzamide monohydrate]
